Structures can show the parent of a compound that is named as a salt.
Legend:
[1] = tested on: NCI-H292 lung cancer cells; experiment: FDA drug screening, complete media vs cholesterol-free media without statin (TABLE 1); type: cell-based, human
[2] = tested on: NCI-H292 lung cancer cells; experiment: FDA drug screening, complete media vs cholesterol-free media with simvastatin (TABLE 2); type: cell-based, human; details: for Cholesterol-free media + simvastatin (0.04 μM) / Complete Media: NCI-H292 cells
[3] = NCI-H292 cells, cholesterol-free media without statin, FDA drug library screen
[4] = NCI-H292 cells, complete media, FDA drug library screen
[5] = complete vs cholesterol-free media, >0 enhanced anti-cancer activity, about 0 neutral, <0 antagonist
[6] = FDA drug library screen, cholesterol-free media with simvastatin 0.04 μM
[7] = FDA drug library screen, complete media
[8] = complete media minus cholesterol-free media + simvastatin, >0 enhanced anti-cancer activity, about 0 neutral, <0 antagonist
[9] = NCI-H292 cells, cholesterol-free media without statin
[10] = complete vs cholesterol-free media, greater than 0 enhanced anti-cancer activity, about 0 neutral, below 0 antagonists
[11] = Complete minus Cholesterol-free, >0 enhanced anti-cancer activity, about 0 neutral, <0 antagonist
[12] = FDA library drug in cholesterol-free media with simvastatin 0.04 μM
[13] = complete media vs cholesterol-free media + simvastatin (0.04 μM), >0 enhanced anti-cancer activity, about 0 neutral, <0 antagonist
[14] = FDA library drug in complete media
[15] = Complete minus Cholesterol-free, greater than 0 enhanced anti-cancer activity, about 0 neutral, below 0 antagonists
[16] = NCI-H292 cells in cholesterol-free media without statin
[17] = drug in cholesterol-free media with simvastatin 0.04 μM
[18] = cholesterol-free media with simvastatin 0.04 μM, cell growth value in FDA drug screen
[19] = complete media, cell growth value in FDA drug screen
[20] = Complete minus Cholesterol-free, greater than 0 enhanced anti-cancer activity, about 0 neutral, below 0 antagonist
[21] = NCI-H292 cells, FDA drug library screen, cholesterol-free media without statin
[22] = NCI-H292 cells, FDA drug library screen, complete media
[23] = NCI-H292 cells in complete media

Compound | Cholesterol-free [1, 3] | Complete [1, 4] | Cholesterol-free media + simvastatin (0.04 μM) [2, 6] | Complete Media [2, 7] | Difference [2, 8] | Cholesterol-free [1, 9] | Complete ([1]; NCI-H292 cells, complete media) | Difference [1, 11] | Difference [2, 13] | also measured
Cn1c(=O)c2c(ncn2CCO)n(C)c1=O [Etofylline] | 1.261 | 1.355 | 0.885 | 1.042 | 0.16 |  |  |  |  | Difference [1, 5]: 0.09
CC1=C[C@]23C(=O)[C@@H](C=C(CO)[C@@H](O)[C@]2(O)[C@H]1O)[C@H]1[C@@H](C[C@H]3C)C1(C)C [Ingenol] |  |  | 1.056 | 0.969 |  | 0.932 | 0.6376 |  |  | Difference ([1]; Complete minus Cholesterol-free, […]): −0.29; Difference ([2]; complete media vs cholesterol-free media + simvastatin (0.04 μM), […]): −0.09
COc1ccccc1OCC(O)CO (stereo not shown) [Guaifenesin] |  |  | 1.078 | 1.326 | 0.25 | 1.204 | 0.8523 |  |  | Difference [1, 10]: −0.35
Nc1cc(N2CCCCC2)nc(N)[n+]1[O-] [Minoxidil] |  |  |  |  |  | 1.202 | 1.002 | −0.20 | −0.68 | Cholesterol-free media + simvastatin (0.04 μM) [2, 12]: 1.841
CNC(=O)c1cc(Oc2ccc(NC(=O)Nc3ccc(Cl)c(C(F)(F)F)c3)c(F)c2)ccn1 [Regorafenib (monohydrate)] |  |  |  |  |  | 1.026 | 0.6282 |  | −0.58 | Difference [1, 10]: −0.40; Cholesterol-free media + simvastatin (0.04 μM) [2, 12]: 1.311; Complete Media [2, 14]: 0.728
CC(C)NCC(O)c1ccc(O)c(O)c1 (stereo not shown) [Isoprenaline (hydrochloride)] |  |  | 1.496 | 1.355 |  |  |  |  | −0.14 | Difference [1, 15]: −0.50; Cholesterol-free [1, 16]: 1.676
Cc1cnc(C(=O)NCCc2ccc(S(=O)(=O)NC(=O)NC3CCCCC3)cc2)cn1 [Glipizide] |  |  |  |  |  | 1.844 | 1.46 |  | −0.22 | Difference [1, 10]: −0.38; Cholesterol-free media + simvastatin (0.04 μM) [2, 17]: 1.42; Complete Media ([2]; drug in complete media): 1.2
C=CC(=O)N1CCC[C@@H](n2nc(-c3ccc(Oc4ccccc4)cc3)c3c(N)ncnc32)C1 [Ibrutinib] | 0.4459 | 0.3765 | 0.5962 | 0.4594 |  |  |  | −0.07 | −0.14 | 
CC(=O)Oc1c(C)c(C)c2c(c1C)CCC(C)(CCC[C@H](C)CCC[C@H](C)CCCC(C)C)O2 (stereo partly drawn) [D-α-Tocopherol acetate] | 0.7729 | 1.233 |  |  | 0.11 |  |  |  |  | Difference [1, 5]: 0.46; Cholesterol-free media + simvastatin (0.04 μM) [2, 18]: 0.8974; Complete Media [2, 19]: 1.003
CC(C)[N+](C)(CCOC(=O)C1c2ccccc2Oc2ccccc21)C(C)C.[Br-] [Propantheline (bromide)] | 1.311 | 1.294 |  |  | 0.04 |  |  | −0.02 |  | Cholesterol-free media + simvastatin (0.04 μM) [2, 18]: 1.413; Complete Media [2, 19]: 1.449
C[C@@H](O)[C@H]1C(=O)N2C(C(=O)O)=C([C@H]3CCCO3)S[C@H]12 [Faropenem sodium] | 0.8692 | 0.8522 |  |  | 0.04 |  |  | −0.02 |  | Cholesterol-free media + simvastatin (0.04 μM) [2, 18]: 0.9421; Complete Media [2, 19]: 0.984
COc1cc([C@@H]2c3cc4c(cc3[C@@H](O[C@@H]3O[C@@H]5CO[C@@H](C)O[C@H]5[C@H](O)[C@H]3O)[C@H]3COC(=O)[C@H]23)OCO4)cc(OC)c1OP(=O)(O)O [Etoposide phosphate] |  |  |  |  |  |  |  |  | −0.20 | Difference [1, 20]: −0.10; Cholesterol-free [1, 21]: 0.7876; Complete [1, 22]: 0.6917; Cholesterol-free media + simvastatin (0.04 μM) [2, 17]: 0.9468; Complete Media ([2]; drug in complete media): 0.7461
O=C(Nc1ccc(Cl)cc1)Nc1ccc(Cl)c(Cl)c1 [Triclocarban] | 0.8072 | 0.7602 |  |  |  |  |  | −0.05 |  | Cholesterol-free media + simvastatin (0.04 μM) ([2]; cholesterol-free media with simvastatin 0.04 μM, FDA drug library screen (TABLE 2)): 1.029; Complete Media ([2]; complete media, FDA drug library screen (TABLE 2)): 0.9601; Difference ([2]; complete media minus cholesterol-free media + simvastatin (0.04 μM), >0 enhanced anti-cancer activity, about 0 neutral, <0 antagonist): −0.07
C[C@]12C=CC(=O)C=C1CC[C@@H]1[C@@H]2C(=O)C[C@@]2(C)[C@H]1CC[C@]2(O)C(=O)CO [Prednisone] |  |  |  |  | 0.07 |  |  |  |  | Difference [1, 15]: −0.52; Cholesterol-free [1, 16]: 1.522; Complete [1, 23]: 1.002; Cholesterol-free media + simvastatin (0.04 μM) [2, 18]: 0.9598; Complete Media [2, 19]: 1.028
CCOC(=O)[C@H](CCc1ccccc1)N[C@@H](C)C(=O)N1[C@H](C(=O)O)C[C@H]2CCCC[C@@H]21 [Trandolapril] |  |  |  |  |  |  |  |  | −0.22 | Difference [1, 20]: −0.10; Cholesterol-free [1, 21]: 1.068; Complete [1, 22]: 0.9671; Cholesterol-free media + simvastatin (0.04 μM) [2, 17]: 1.441; Complete Media ([2]; drug in complete media): 1.221
O=C(Nc1nc(-c2cc(Cl)cs2)c(N2CCN(C3CCCCC3)CC2)s1)c1cnc(N2CCC(C(=O)O)CC2)c(Cl)c1 [Avatrombopag (hydrochloride)] |  |  | 1.18 | 1.082 |  |  |  |  | −0.10 | Difference [1, 20]: −0.15; Cholesterol-free [1, 21]: 0.9128; Complete [1, 22]: 0.7673
N[C@@H](CSCCCO)C(=O)O [Fudosteine] | 1.084 | 1.177 | 1.309 | 1.163 |  |  |  |  | −0.15 | Difference [1, 5]: 0.09
CCCc1cc(C(N)=S)ccn1 [Prothionamide] |  |  |  |  | 0.06 |  |  |  |  | Difference [1, 15]: −0.62; Cholesterol-free [1, 16]: 1.391; Complete [1, 23]: 0.7758; Cholesterol-free media + simvastatin (0.04 μM) [2, 18]: 1.039; Complete Media [2, 19]: 1.099
CC(C)COCC(CN(Cc1ccccc1)c1ccccc1)N1CCCC1 (stereo not shown) [Bepridil hydrochloride] |  |  | 1.312 | 1.584 | 0.27 | 1.009 | 0.8157 | −0.19 |  | 
CC(C)(C)C(=O)Oc1ccc(S(=O)(=O)Nc2ccccc2C(=O)NCC(=O)O)cc1 [Sivelestat] |  |  |  |  | 0.07 |  |  |  |  | Difference [1, 20]: −0.16; Cholesterol-free [1, 21]: 1.175; Complete [1, 22]: 1.017; Cholesterol-free media + simvastatin (0.04 μM) [2, 18]: 0.7952; Complete Media [2, 19]: 0.866
CC(=O)S[C@@H]1CC2=CC(=O)CC[C@]2(C)[C@H]2CC[C@@]3(C)[C@@H](CC[C@@]34CCC(=O)O4)[C@H]12 [Spironolactone] | 1.102 | 1.134 |  |  |  |  |  | 0.03 | −0.51 | Cholesterol-free media + simvastatin (0.04 μM) [2, 12]: 1.784; Complete Media [2, 14]: 1.272
CCC1(C)CC(=O)NC1=O (stereo not shown) [Ethosuximide] |  |  | 1.133 | 0.9952 |  | 1.124 | 0.884 | −0.24 | −0.14 | 
